From patent publication US20070207989A1, “DITERPENE DERIVATIVES FOR THE TREATMENT OF CARDIOVASCULAR, CANCER AND INFLAMMATORY DISEASES” (SaviPu Pharmaceuticals, priority 2006, published 2007)

What was measured:
ETB receptor = target: T1, ETB receptor (Homo sapiens, UniProt P24530); settings: cited from earlier work
T1 sequence (P24530 27-442): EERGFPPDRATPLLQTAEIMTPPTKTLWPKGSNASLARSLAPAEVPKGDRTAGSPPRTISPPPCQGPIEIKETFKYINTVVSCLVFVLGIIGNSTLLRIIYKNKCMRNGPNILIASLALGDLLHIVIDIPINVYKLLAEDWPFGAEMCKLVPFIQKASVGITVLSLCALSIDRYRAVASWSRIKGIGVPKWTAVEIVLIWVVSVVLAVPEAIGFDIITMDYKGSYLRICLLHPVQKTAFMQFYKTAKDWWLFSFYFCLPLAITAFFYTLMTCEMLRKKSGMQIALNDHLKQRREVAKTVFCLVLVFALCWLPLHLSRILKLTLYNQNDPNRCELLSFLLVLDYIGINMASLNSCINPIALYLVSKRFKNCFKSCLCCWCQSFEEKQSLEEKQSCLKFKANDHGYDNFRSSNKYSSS

ETA receptor = target: T2, ETA receptor (Homo sapiens, UniProt P25101); settings: cited from earlier work
T2 sequence (P25101 21-427): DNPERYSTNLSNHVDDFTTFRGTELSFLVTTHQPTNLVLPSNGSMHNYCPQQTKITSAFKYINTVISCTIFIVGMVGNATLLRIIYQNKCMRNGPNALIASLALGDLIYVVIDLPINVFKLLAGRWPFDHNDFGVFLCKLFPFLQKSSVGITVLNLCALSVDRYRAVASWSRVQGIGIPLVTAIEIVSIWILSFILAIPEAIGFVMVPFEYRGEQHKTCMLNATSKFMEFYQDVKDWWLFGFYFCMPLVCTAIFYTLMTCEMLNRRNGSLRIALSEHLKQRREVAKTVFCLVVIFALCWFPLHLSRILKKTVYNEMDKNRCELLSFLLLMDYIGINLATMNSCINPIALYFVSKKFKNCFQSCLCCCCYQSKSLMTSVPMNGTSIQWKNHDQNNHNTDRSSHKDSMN

carcinoma cell lines = settings: four cell lines; cited from earlier work
tumor cell lines = assay: inhibition of tumor cell lines; assay type: cell-based
NF-κB [1] = settings: cited from earlier work
NF-κB [2] = assay: inhibition of NF-κB / NF-κB binding to κB consensus DNA
[3] = target: T3, endothelin receptor A (ETA) (Homo sapiens, UniProt P25101); assay: inhibition of endothelin receptor A (ETA)
T3 sequence (P25101 21-427): T2 sequence (P25101 21-427)

endothelin receptor = settings: cited from earlier work
human cancer cell lines = settings: cited from earlier work

CCCOc1ccc2c(c1)[C@@H](c1ccc(OC)cc1OCC(=O)O)[C@H](C(=O)O)[C@H]2c1ccc2c(c1)OCO2 [SB-209670]
affinity for ETB receptor (concentration range in words) (ETB receptor): nanomolar
affinity for ETA receptor (concentration range in words) (ETA receptor): subnanomolar

Cc1coc2c1C(=O)C(=O)c1c-2ccc2c1CCCC2(C)CO (centres unmarked) [compound 11, tanshinone IIB]
potency against carcinoma cell lines (in words) (carcinoma cell lines): very little activity

COC(=O)[C@@]1(C)CCCc2c1ccc1c2C(=O)C(=O)c2c(C)coc2-1 [compound 10, methyl tanshinonate]
potency against carcinoma cell lines (in words) (carcinoma cell lines): equally potent as the tanshindiols

Cc1coc2c1C(=O)C(=O)c1c-2ccc2c1CCCC2(C)C [compound 8, tanshinone IIA]
inhibition of tumor cell lines (tumor cell lines): modest inhibition
blocking of NFκB binding to κB consensus DNA (NF-κB [1]): block NFκB from binding to κB consensus DNA
inhibition of NF-κB (NF-κB [2]): modest inhibition
potency against carcinoma cell lines (in words) (carcinoma cell lines): lack significant activity
inhibition of endothelin receptor A (ETA) [3]: modest inhibition

Cc1noc(NS(=O)(=O)c2cccc3c(N(C)C)cccc23)c1C [BMS-1 82874]
endothelin receptor antagonist activity / binding (in words) (endothelin receptor): active

COc1cc(OC)nc(O[C@H](C(=O)O)C(OC)(c2ccccc2)c2ccccc2)n1 [darusentan]
endothelin receptor antagonist activity / binding (in words) (endothelin receptor): effective endothelin receptor antagonists

C=C1CCCc2c1ccc1c2C(=O)C(=O)c2c(C)coc2-1 [compound 9, methylene tanshinquinone]
potency against carcinoma cell lines (in words) (carcinoma cell lines): more potent than any of the tanshindiols

COc1cccc(Oc2c(NS(=O)(=O)c3ccc(C(C)(C)C)cc3)ncnc2OCCO)c1 [Ro-46-2005]
endothelin receptor antagonist activity / binding (in words) (endothelin receptor): orally active non-peptidic antagonist

Cc1cccc2c1ccc1c3occ(C)c3c(=O)oc21 [compound 20, neo-tanshinlactone]
potency relative to tamoxifen citrate (human cancer cell lines; breast cancer, in some cases): ten times more potent
selectivity relative to tamoxifen citrate (human cancer cell lines; breast cancer, in some cases): twenty times more selective
effectiveness against human cancer cell lines (human cancer cell lines; several human cancer cell lines, particularly breast cancer): very effective

Cc1coc2c1C(=O)C(=O)c1c-2ccc2c(C)cccc12 [tanshinone 17]
potency against carcinoma cell lines (in words) (carcinoma cell lines): lack significant activity
